Laboratory results published in patent US7014839B2, “Light imaging contrast agents” (Amersham Health AS, priority 1995, dated 2006).
Marks after values point to notes of the source that are not given here.

Assays:
[1] = Average particle size of milled nanoparticle suspensions (light scattering); conditions: for average particle size: light scattering
Description: WIN 70146 (an iodinated X-ray contrast agent prepared according to Example 23 below) was added to each of 3×1.5 oz brown glass bottles containing approximately 12 ml of zirconium silicate, 1.1 mm diameter beads in an amount sufficient to be 15% (wt/vol %) of the final suspension. Bottle A was also made 3% (wt/vol %) Pluronic F-68 while bottle B was made 3% (wt/vol %)) Pluronic F-108 and bottle C was made 3% (wt/vol %) Tetronic T-908. The resulting suspensions were milled at approx 150 rpm for a total of 9 days with estimates of particle size determined at various intervals as detailed below.
WIN 70146 was milled with 1.1 mm diameter zirconium silicate beads for 3 days under aseptic conditions. The concentration of this agent was 15% WIN 70146 in the presence of 4% Pluronic F-108. No additional salts or surfactants were added.
WIN 70146 was milled with 1.1 mm diameter zirconium silicate beads in the presence of Pluronic F-108 for 3 days. […] At this point, sterile PEG 400 was added to the suspension such that at completion, the formulation contained 15% (wt/vol %) WIN 70146, 3% (wt/vol %) Pluronic F-108 and 10% PEG 400.
(§1) This suspension was then diluted in water to various levels listed below. The percent of incident light transmitted was then determined for each suspension at several wavelengths (see below). The suspensions were then dissolved by addition of methanol and examined for percent transmitted light against an equivalent solvent blank.
A formulation of WIN 70177 (an iodinated X-ray contrast agent prepared according to Example 24) was prepared as 15 gm of WIN 70177/100 ml of suspension and 4.25-gm of Pluronic F108/100 ml of suspension and 10 gm of PEG 400/100 ml of suspension.
A formulation of WIN 67722 (an iodinated X-ray contrast agent as described in U.S. Pat. No. 5,322,679) was prepared as in Example 1 using 3% Pluronic F108 and 15% PEG 1450.
as §1

[2] = Percent of incident light transmitted by diluted nanoparticle suspension and by methanol-dissolved agent; assay type: physicochemical; conditions: for % T suspension 632 nm / % T suspension 700 nm / % T suspension 820 nm / % T suspension 800 nm: nanoparticle suspension
Text: The results are given below.

[3] = Absorbance vs wavelength of dissolved and nanoparticle agent; assay type: physicochemical; conditions: above 600 nm; for Absorbance vs wavelength of dissolved agent: dissolved (methanol); for Absorbance vs wavelength of nanoparticle agent: particulate suspension
mice = system: mice
Description: WIN 70146 was prepared as in Example 10 and injected into the tail vein of mice at doses of 3 ml/kg, 15 ml/kg, and 30 ml/kg (ie. 0.45 gm/kg, 2.25 gm/kg and 4.5 gm/kg).

[4] = Stability testing in fresh rat plasma; assay type: physicochemical; conditions: nanoparticle suspension, F108/PEG 400
Description: (§2) A formulation of WIN 70177 (an iodinated X-ray contrast agent prepared according to Example 24) was prepared as 15 gm of WIN 70177/100 ml of suspension and 4.25-gm of Pluronic F108/100 ml of suspension and 10 gm of PEG 400/100 ml of suspension. The suspension was milled for 5 days after which the average particle size was determined by light scattering to be about 235 nm.

[5] = Stability testing in simulated gastric fluid; assay type: physicochemical; conditions: nanoparticle suspension, F108/PEG 400
Description: as §2

[6] = 3% Pluronic F108, 15% PEG 1450, milled 3 days, Coulter N4MD
[7] = methanol added, 0.150%, not fully dissolved
[8] = methanol added, 0.300%, not fully dissolved

SMILES | % T solution 632 nm ([2]; dissolved by methanol, 0.015%) [%] | % T solution 700 nm ([2]; dissolved by methanol, 0.015%) [%] | % T solution 632 nm ([2]; dissolved by methanol, 0.0375%) [%] | % T solution 700 nm ([2]; dissolved by methanol, 0.0375%) [%] | % T solution 632 nm ([2]; dissolved by methanol, 0.075%) [%] | % T solution 700 nm ([2]; dissolved by methanol, 0.075%) [%] | % T solution 632 nm [2, 7] | % T solution 700 nm [2, 7] | % T solution 632 nm [2, 8] | % T solution 700 nm [2, 8] | % T suspension 632 nm ([2]; 0.015%) [%] | % T suspension 700 nm ([2]; 0.015%) [%] | % T suspension 632 nm ([2]; 0.0375%) [%] | % T suspension 700 nm ([2]; 0.0375%) [%] | % T suspension 632 nm ([2]; 0.075%) [%] | % T suspension 700 nm ([2]; 0.075%) [%] | % T suspension 632 nm ([2]; 0.150%) [%] | % T suspension 700 nm ([2]; 0.150%) [%] | % T suspension 632 nm ([2]; 0.300%) [%] | % T suspension 700 nm ([2]; 0.300%) [%] | other results
CCOC(=O)CCCCCOC(=O)c1c(I)c(NC(C)=O)c(I)c(NC(C)=O)c1I [WIN 67722] | 99.9 | 99.9 | 100.2 | 100.2 | 100.1 | 100.2 | 48.2* % | 55.3* % | 1.3* % | 3.5* % | 47.9 | 57.1 | 20.5 | 29.9 | 4.8 | 9.9 | 0.2 | 1.0 | 0.0 | 0.0 | average diameter after autoclaving ([1]; 3% Pluronic F108, 15% PEG 1450): 214 nm; particle size [1, 6]: 213 nm; particle size, small fraction [1, 6]: 537 nm; % T solution 820 nm ([2]; dissolved by methanol, 0.015%): 100.6%; % T solution 820 nm ([2]; dissolved by methanol, 0.0375%): 100.4%; % T solution 820 nm ([2]; dissolved by methanol, 0.075%): 100.4%; % T solution 820 nm [2, 7]: 65.5* %; % T solution 820 nm [2, 8]: 10.7* %; % T suspension 820 nm ([2]; 0.015%): 69.2%; % T suspension 820 nm ([2]; 0.0375%): 45.6%; % T suspension 820 nm ([2]; 0.075%): 22.1%; % T suspension 820 nm ([2]; 0.150%): 4.9%; % T suspension 820 nm ([2]; 0.300%): 0.2%; Absorbance vs wavelength of dissolved agent [3]: has virtually no absorbance at all even at 5 times the concentration; Absorbance vs wavelength of nanoparticle agent [3]: provides an exponential drop in absorbance with wavelength
CCCCC(OC(=O)c1c(I)c(NC(C)=O)c(I)c(NC(C)=O)c1I)C(=O)OCC (centres unmarked) [WIN 70146, Benzoic Acid, 3,5-bis(acetylamino)-2,4,6-triiodo-1-(ethoxycarbonyl)pentyl ester] | 100.4 | 100.3 | 99.9 | 99.9 | 99.9 | 99.8 | 41.4* % | 51.9* % | 1.2* % | 4.0* % | 54.7 | 64.5 | 25.4 | 36.6 | 7.7 | 15.4 | 0.5 | 1.9 | 0.0 | 0.1 | average diameter after autoclaving ([1]; 4.25% F108/10% PEG 400): 228 nm; average particle size ([1]; 15% WIN 70146, 4% Pluronic F-108, milled 3 days): 162 nm; final particle size after autoclaving ([1]; 15% agent, 3% Pluronic F-108, 10% PEG 400, 121 degrees C. for 20 min): 248 nm; final particle size after milling ([1]; Pluronic F-108, milled 3 days, before PEG 400 and autoclaving): 235 nm; Stability to heat and shelf time of nanoparticle suspension ([1]; in F108 and T908, autoclaving, time on the shelf): excellent stability to heat (autoclaving) and time on the shelf; Untoward effects (mice; tail vein, 3, 15 and 30 ml/kg (0.45, 2.25, 4.5 gm/kg), 7 days): No untoward effects were noted; Gross observation after sacrifice (mice; tail vein, 3-30 ml/kg, after 7 days): did not reveal any obvious lesions or disfigurations; % T solution 820 nm ([2]; dissolved by methanol, 0.015%): 100.5%; % T solution 820 nm ([2]; dissolved by methanol, 0.0375%): 99.9%; % T solution 820 nm ([2]; dissolved by methanol, 0.075%): 99.9%; % T solution 820 nm [2, 7]: 66.2* %; % T solution 820 nm [2, 8]: 13.5* %; % T suspension 820 nm ([2]; 0.015%): 77.0%; % T suspension 820 nm ([2]; 0.0375%): 53.8%; % T suspension 820 nm ([2]; 0.075%): 31.8%; % T suspension 820 nm ([2]; 0.150%): 8.6%; % T suspension 820 nm ([2]; 0.300%): 0.8%; Absorbance vs wavelength of dissolved agent [3]: does not show any evidence of light absorbance from 600 to 800 nm; Absorbance vs wavelength of nanoparticle agent [3]: shows a classic absorbance decay due to scattering of the incident light
CC(=O)Nc1c(I)c(NC(C)=O)c(I)c(C(=O)OCC(C(=O)OC(C)C)C(=O)OC(C)C)c1I [WIN 70177, Propanedioic Acid, [[3,5-bis(acetylamino)-2,4,6-triiodobenzoyl]oxy]methyl-bis(1-methylethyl)ester] | 102.2 | 101.9 | 102.3 | 101.9 | 100.9 | 100.8 | 59.5* % | 67.8* % | 7.4* % | 14.4* % | 53.3 | 62.8 | 34.6 | 45.7 | 25.8 | 36.8 | 6.7 | 13.6 | 0.1 | 0.6 | average diameter after autoclaving ([1]; 4.25% F108/10% PEG 400): 236 nm; average particle size ([1]; 15 gm agent, 4.25 gm Pluronic F108, 10 gm PEG 400 per 100 ml, milled 5 days): about 235 nm; % T solution 800 nm ([2]; dissolved by methanol, 0.015%): 101.8%; % T solution 800 nm ([2]; dissolved by methanol, 0.0375%): 101.8%; % T solution 800 nm ([2]; dissolved by methanol, 0.075%): 101.0%; % T solution 800 nm [2, 7]: 77.0* %; % T solution 800 nm [2, 8]: 26.8* %; % T suspension 800 nm ([2]; 0.015%): 73.1%; % T suspension 800 nm ([2]; 0.0375%): 59.1%; % T suspension 800 nm ([2]; 0.075%): 51.1%; % T suspension 800 nm ([2]; 0.150%): 26.3%; % T suspension 800 nm ([2]; 0.300%): 3.2%; Aggregation in fresh rat plasma [4]: did not show any aggregation; Aggregation in simulated gastric fluid [5]: did not show any aggregation; Absorbance vs wavelength of dissolved agent [3]: has virtually no absorbance at all even at 5 times the concentration; Absorbance vs wavelength of nanoparticle agent [3]: provides an exponential drop in absorbance with wavelength
